Drawing on patent US20170298052A1, “SUBSTITUTED OXOPYRIDINE DERIVATIVES” (BAYER PHARMA AKTIENGESELLSCHAFT, priority 2014, published 2017), this text covers IC50 for 5 compounds.

One experiment addresses T1, human factor XIa (Homo sapiens, UniProt P03951).
T1 construct: purchased Kordia
The experiment is described as follows: Measurement of FXIa inhibition (fluorogenic peptide substrate, AMC cleavage). Type of experiment: biochemical. The following applies: factor XIa from Kordia 0.45 nM; substrate Boc-Glu(OBzl)-Ala-Arg-AMC; 30 min at 22° C. On the procedure:
The factor XIa inhibition of the substances according to the invention is determined using a biochemical test system which utilizes the reaction of a peptidic factor XIa substrate to determine the enzymatic activity of human factor XIa. Here, factor XIa cleaves from the peptic factor XIa substrate the C-terminal aminomethylcoumarin (AMC), the fluorescence of which is measured. The determinations are carried out in microtitre plates.
1 μl of the diluted substance solutions is placed into each of the wells of white microtitre plates from Greiner (384 wells). […] After 15 min of incubation, the enzyme reaction is started by addition of 20 μl of the factor XIa substrate Boc-Glu(OBzl)-Ala-Arg-AMC dissolved in assay buffer (10 μM in assay buffer) from Bachem, the mixture is incubated at room temperature (22° C.) for 30 min and fluorescence is then measured (excitation: 360 nm, emission: 460 nm). The measured emissions of the test batches with test substance are compared to those of control batches without test substance (only dimethyl sulphoxide instead of test substance in dimethyl sulphoxide), and IC50 values are calculated from the concentration/activity relationships.

Another experiment has as its target human plasma kallikrein (Homo sapiens, UniProt P03952). The experiment is described as follows: Determination of the plasma kallikrein activity (fluorogenic peptide substrate, AMC cleavage). Type of experiment: biochemical. The following applies: plasma kallikrein from Kordia 0.6 nM; substrate H-Pro-Phe-Arg-AMC; 30 min at 22° C.; read-out: IC50 [nM] (Table B, plasma kallikrein inhibition). On the procedure: To determine the plasma kallikrein inhibition of the substances according to the invention, a biochemical test system is used which utilizes the reaction of a peptidic plasma kallikrein substrate to determine the enzymatic activity of human plasma kallikrein. Here, plasma kallikrein cleaves from the peptic plasma kallikrein substrate the C-terminal aminomethylcoumarin (AMC), the fluorescence of which is measured. The determinations are carried out in microtitre plates.
Test substances are dissolved in dimethyl sulphoxide and serially diluted in dimethyl sulphoxide (3000 μM to 0.0078 μM; resulting final concentrations in the test: 50 μM to 0.00013 μM). 1 μl of the diluted substance solutions is placed into each of the wells of white microtitre plates from Greiner (384 wells). 20 μl of assay buffer (50 mM Tris/HCl pH 7.4; 100 mM sodium chloride solution; 5 mM of calcium chloride solution; 0.1% of bovine serum albumin) and 20 μl of plasma kallikrein from Kordia (0.6 nM in assay buffer) are then added successively. After 15 min of incubation, the enzyme reaction is started by addition of 20 μl of the substrate H-Pro-Phe-Arg-AMC dissolved in assay buffer (10 μM in assay buffer) from Bachem, the mixture is incubated at room temperature (22° C.) for 30 min and fluorescence is then measured (excitation: 360 nm, emission: 460 nm). The measured emissions of the test batches with test substance are compared to those of control batches without test substance (only dimethyl sulphoxide instead of test substance in dimethyl sulphoxide), and IC50 values are calculated from the concentration/activity relationships.

T1 sequence (P03951 388-625 limits assumed): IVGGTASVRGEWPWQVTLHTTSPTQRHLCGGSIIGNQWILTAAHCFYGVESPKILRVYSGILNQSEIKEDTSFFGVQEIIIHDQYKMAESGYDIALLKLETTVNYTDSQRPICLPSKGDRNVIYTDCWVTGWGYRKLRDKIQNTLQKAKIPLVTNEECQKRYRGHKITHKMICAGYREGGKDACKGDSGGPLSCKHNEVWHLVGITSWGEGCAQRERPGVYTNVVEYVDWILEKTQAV
T1 sequence (P03951 19-387 partner limits assumed): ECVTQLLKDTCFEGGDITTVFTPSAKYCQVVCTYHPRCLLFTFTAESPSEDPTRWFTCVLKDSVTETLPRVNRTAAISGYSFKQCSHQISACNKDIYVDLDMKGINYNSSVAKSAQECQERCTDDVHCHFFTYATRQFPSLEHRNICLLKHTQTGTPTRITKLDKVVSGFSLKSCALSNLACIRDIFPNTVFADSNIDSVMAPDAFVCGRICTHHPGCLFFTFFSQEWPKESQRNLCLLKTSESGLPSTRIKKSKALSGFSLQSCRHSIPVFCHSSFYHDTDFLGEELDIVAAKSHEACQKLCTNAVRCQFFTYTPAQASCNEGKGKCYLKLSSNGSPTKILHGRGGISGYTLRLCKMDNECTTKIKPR
Chain of human plasma kallikrein (P03952 391-638 limits assumed): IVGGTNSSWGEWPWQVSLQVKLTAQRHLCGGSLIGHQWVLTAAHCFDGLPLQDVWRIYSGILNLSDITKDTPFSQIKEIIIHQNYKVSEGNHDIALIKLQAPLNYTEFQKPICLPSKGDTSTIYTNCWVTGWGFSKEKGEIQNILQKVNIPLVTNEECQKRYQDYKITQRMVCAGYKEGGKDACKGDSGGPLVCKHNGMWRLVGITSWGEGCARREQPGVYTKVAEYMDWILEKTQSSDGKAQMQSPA
Chain of human plasma kallikrein (P03952 20-390 partner limits assumed): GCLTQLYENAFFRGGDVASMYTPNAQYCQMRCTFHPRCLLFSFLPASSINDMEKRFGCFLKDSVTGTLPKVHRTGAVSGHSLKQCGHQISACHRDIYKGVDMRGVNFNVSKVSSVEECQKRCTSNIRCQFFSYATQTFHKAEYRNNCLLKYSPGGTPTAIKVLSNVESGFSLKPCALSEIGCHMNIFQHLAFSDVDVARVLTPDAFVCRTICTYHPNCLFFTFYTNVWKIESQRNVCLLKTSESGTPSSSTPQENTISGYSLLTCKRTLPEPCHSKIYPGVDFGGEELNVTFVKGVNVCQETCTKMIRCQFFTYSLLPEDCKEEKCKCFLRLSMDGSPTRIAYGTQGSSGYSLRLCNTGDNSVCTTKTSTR

What is called IC50 is the point on the concentration scale where inhibition reaches its midpoint. With `N#Cc1ccc(Cl)cc1-c1cc(=O)n(C(Cc2ccccn2)C(=O)Nc2ccc(C(N)=O)c(F)c2)cc1Cl` (stereo not shown) [Example 13], the values for the IC50 against human factor XIa and on human plasma kallikrein were 63 nM and 110 nM, respectively.

Take `N#Cc1ccc(Cl)cc1-c1cc(=O)n(C(C[C@@H]2CCCCO2)C(=O)Nc2ccc(C(N)=O)c(F)c2)cc1Cl` (stereo partly shown) [Example 14]: the IC50 is 25 nM at human factor XIa and 210 nM on human plasma kallikrein.

`CNC(=O)c1ccc(NC(=O)C(C[C@@H]2CCCCO2)n2cc(Cl)c(-c3cc(Cl)ccc3C#N)cc2=O)cc1F` (stereo partly shown) [Example 15]: the IC50 came out at 28 nM against human factor XIa and 260 nM at human plasma kallikrein.

Turning to `COc1cn(C(Cc2cc(C)no2)C(=O)Nc2ccc(C(N)=O)c(F)c2)c(=O)cc1-c1cc(Cl)ccc1F` (stereo not shown) [Example 16], the IC50 stood at 200 nM on human factor XIa and 350 nM on human plasma kallikrein.

`COc1cn(C(Cc2ccccn2)C(=O)Nc2ccc(C(N)=O)c(F)c2)c(=O)cc1-c1cc(Cl)ccc1F` (stereo not shown) [Example 17]: the IC50 against human factor XIa came to 290 nM; on human plasma kallikrein, 230 nM.
